Reference: PMC8155176, “Reversible modulation of circadian time with chronophotopharmacology” (Nature Communications, 2021)

Biological target: T1, CKIδ (Homo sapiens, UniProt P48730)
T1 construct: purchased Eurofins 14-520
T1 sequence (P48730 1-294 limits assumed): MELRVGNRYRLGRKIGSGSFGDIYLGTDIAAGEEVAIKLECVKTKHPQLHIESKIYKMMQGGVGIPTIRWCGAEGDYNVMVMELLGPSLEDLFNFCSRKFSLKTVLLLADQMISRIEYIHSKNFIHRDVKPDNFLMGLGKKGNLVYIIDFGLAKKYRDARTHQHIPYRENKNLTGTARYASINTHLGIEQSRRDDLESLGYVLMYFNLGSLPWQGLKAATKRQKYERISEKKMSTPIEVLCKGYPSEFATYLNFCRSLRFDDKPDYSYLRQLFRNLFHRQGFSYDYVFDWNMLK
Experiment: In vitro kinase assay (Kinase Glo), CKIδ
Format: biochemical
Conditions: green light 530 nm vs dark
Description: A stock solution of 7.4 mM in DMSO was prepared and thermally adapted by heating to c.a. 100 °C for 1 min. Two series of eight samples were prepared with consecutive three-time dilutions from the stock solution. One of the series (‘dark’ samples) was prepared in dark Eppendorf tube, the other series (‘light’ samples) was pre-irradiated with UV light (365 nm, UV lamp Spectroline, ENB-280/FE, 1 × 8 Watt) for 45 min. For compound 9, 1 mM solution in DMSO was thermally adapted by heating to 80 °C for 2 min and split into two vials. One vial was kept in the dark and the other was irradiated with green light (530 nm, 3x Nichia NCSG219B-V1, 3 × 550 mW, Sahlmann Photochemical Solutions) for 60 min. Both dark-kept and irradiated samples were subjected to 8-point 3-fold dilutions. All the solutions were applied to the well plate under a red lamp in the dark room in order to prevent ambient-light-induced photo-isomerization. […]
By employing this method, all reactions were started at the same time, minimizing variance between different samples. […] After the incubation, 10 μL Kinase Glo® (Promega) was applied into the wells and the luminescent signal was recorded by a plate reader (BioTek Synergy H1 or Cytation). […]
The data obtained from the in vitro kinase assay was analyzed using GraphPad software, in which the luminescence outcome is normalized. […]

Q: How did the “ratio of CKIδ IC50 of cis-isomer to trans-isomer” value turn out when `CC(C)n1cnc2c(NCc3ccc(F)c(/N=N/c4c(F)cccc4F)c3F)ncnc21` [Compound 9] was run?
A: 3.7 times
